PMC7252619 (PLoS ONE, 2020)
Like-named read-outs stand apart in the source and are kept apart here.

Key:
Test in all cases: Kinase activity test (ReactionBiology), % enzyme activity relative to DMSO;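 as to remaining activity: FDA-approved drugs chosen by structure-based repositioning, each screened at 10 or 1 µM for kinase activity, expressed as percent of DMSO controls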
Format in all cases: biochemical
NEK2 = target: T1, NEK2 (Homo sapiens, UniProt P51955); details: NEK2;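 also: FDA-approved drugs chosen by structure-based repositioning, each screened at 10 or 1 µM for kinase activity, expressed as percent of DMSO controls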
T1 construct: purchased ReactionBiology
T1 sequence (P51955 1-445): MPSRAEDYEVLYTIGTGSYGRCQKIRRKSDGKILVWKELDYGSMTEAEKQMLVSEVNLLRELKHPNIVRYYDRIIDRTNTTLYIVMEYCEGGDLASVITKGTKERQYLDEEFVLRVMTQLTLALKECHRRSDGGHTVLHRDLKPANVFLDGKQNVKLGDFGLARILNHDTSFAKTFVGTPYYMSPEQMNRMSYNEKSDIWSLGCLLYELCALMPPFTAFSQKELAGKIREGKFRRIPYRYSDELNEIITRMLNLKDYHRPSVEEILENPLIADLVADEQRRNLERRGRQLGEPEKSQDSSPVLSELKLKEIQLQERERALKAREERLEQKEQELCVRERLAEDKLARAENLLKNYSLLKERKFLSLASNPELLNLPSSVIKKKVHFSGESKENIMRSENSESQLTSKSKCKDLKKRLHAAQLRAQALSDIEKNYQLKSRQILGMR

CK1d = target: T2, CK1d (Homo sapiens, UniProt P48730); details: CK1d; for % Enzyme Activity (relative to DMSO controls), Data 1: replicate Data 1; for % Enzyme Activity (relative to DMSO controls), Data 2: replicate Data 2
T2 construct: purchased ReactionBiology

VEGFR2 = VEGFR2 (Homo sapiens, UniProt P35968); parameters: purchased ReactionBiology; details: VEGFR2; for % Enzyme Activity (relative to DMSO controls), Data 1: replicate Data 1; for % Enzyme Activity (relative to DMSO controls), Data 2: replicate Data 2;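 as to all read-outs here: VEGFR2 was one member of a ten-kinase screening panel testing marketed FDA-approved drugs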
[1] = compound at 1 uM, average of Data 1 and Data 2
[2] = compound at 10 uM, average of Data 1 and Data 2

Chain of VEGFR2 (P35968 20-1356): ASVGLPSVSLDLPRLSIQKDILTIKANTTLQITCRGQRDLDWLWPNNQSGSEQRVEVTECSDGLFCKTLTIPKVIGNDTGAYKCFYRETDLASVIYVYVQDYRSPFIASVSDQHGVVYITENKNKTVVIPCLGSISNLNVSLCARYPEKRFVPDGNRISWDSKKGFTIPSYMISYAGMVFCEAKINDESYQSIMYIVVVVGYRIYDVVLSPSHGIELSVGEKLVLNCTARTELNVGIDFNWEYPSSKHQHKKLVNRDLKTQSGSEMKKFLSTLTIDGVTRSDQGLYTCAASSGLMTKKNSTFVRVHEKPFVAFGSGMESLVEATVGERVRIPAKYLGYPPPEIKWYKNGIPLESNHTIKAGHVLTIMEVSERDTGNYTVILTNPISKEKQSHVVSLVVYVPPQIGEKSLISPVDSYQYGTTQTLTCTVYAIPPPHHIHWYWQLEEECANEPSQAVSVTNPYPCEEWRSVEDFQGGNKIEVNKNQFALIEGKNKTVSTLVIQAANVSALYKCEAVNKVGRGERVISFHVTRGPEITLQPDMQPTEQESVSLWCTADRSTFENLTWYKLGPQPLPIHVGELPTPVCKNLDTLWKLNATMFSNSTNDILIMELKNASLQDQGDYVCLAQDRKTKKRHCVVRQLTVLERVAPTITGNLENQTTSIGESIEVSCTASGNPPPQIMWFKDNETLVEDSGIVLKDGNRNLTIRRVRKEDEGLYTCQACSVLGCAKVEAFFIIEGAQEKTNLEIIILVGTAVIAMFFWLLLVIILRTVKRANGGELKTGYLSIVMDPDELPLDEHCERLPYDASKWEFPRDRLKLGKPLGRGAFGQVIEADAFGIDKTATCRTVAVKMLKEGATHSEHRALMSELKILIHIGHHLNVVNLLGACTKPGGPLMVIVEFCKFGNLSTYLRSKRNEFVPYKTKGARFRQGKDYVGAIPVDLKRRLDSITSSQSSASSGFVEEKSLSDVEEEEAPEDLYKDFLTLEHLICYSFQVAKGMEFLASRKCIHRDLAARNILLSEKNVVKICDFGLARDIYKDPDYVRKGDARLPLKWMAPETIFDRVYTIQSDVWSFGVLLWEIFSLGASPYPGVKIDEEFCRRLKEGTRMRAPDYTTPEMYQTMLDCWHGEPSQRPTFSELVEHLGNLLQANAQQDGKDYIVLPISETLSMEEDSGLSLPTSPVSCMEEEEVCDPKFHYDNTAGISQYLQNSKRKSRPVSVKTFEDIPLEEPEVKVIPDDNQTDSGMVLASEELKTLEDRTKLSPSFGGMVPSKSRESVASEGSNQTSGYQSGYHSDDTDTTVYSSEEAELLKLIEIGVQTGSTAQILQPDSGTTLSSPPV
T2 sequence (P48730 whole entry): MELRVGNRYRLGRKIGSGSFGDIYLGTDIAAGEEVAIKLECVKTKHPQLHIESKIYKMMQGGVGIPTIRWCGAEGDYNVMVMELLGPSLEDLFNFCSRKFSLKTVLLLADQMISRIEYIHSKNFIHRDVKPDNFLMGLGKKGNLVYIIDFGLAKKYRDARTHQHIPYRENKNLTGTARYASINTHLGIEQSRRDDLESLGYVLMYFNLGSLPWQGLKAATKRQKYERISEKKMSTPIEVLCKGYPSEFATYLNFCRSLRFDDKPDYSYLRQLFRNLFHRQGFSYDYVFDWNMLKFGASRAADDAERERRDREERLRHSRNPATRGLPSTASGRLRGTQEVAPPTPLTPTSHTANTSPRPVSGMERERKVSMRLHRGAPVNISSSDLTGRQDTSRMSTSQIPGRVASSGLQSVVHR

Structure (SMILES): O=C(O)c1cc(-c2ccc(F)cc2F)ccc1O [Diflunisal]
- % Enzyme Activity (relative to DMSO controls), Average (NEK2; 1 uM, Average): 92.13%
- % Enzyme Activity (relative to DMSO controls), Data 1 (NEK2; 1 uM, replicate Data 1): 87.06%
- % Enzyme Activity (relative to DMSO controls), Data 2 (NEK2; 1 uM, replicate Data 2): 97.20%
- % Enzyme Activity (relative to DMSO controls), Average (NEK2; 10 uM, Average): 102.79%
- % Enzyme Activity (relative to DMSO controls), Data 1 (NEK2; 10 uM, replicate Data 1): 100.11%
- % Enzyme Activity (relative to DMSO controls), Data 2 (NEK2; 10 uM, replicate Data 2): 105.46%
- % Enzyme Activity (relative to DMSO controls), Average (CK1d; 1 uM): 189.68%
- % Enzyme Activity (relative to DMSO controls), Data 1 (CK1d; 1 uM): 106.89%
- % Enzyme Activity (relative to DMSO controls), Data 2 (CK1d; 1 uM): 272.47%
- % Enzyme Activity (relative to DMSO controls), Average (CK1d; 10 uM): 105.59%
- % Enzyme Activity (relative to DMSO controls), Data 1 (CK1d; 10 uM): 104.76%
- % Enzyme Activity (relative to DMSO controls), Data 2 (CK1d; 10 uM): 106.42%

Structure (SMILES): Nc1nc2[nH]cnc2c(=S)[nH]1 [Thioguanine]
- % Enzyme Activity (relative to DMSO controls), Average (NEK2; 1 uM, Average): 92.40%
- % Enzyme Activity (relative to DMSO controls), Data 1 (NEK2; 1 uM, replicate Data 1): 91.41%
- % Enzyme Activity (relative to DMSO controls), Data 2 (NEK2; 1 uM, replicate Data 2): 93.38%
- % Enzyme Activity (relative to DMSO controls), Average (NEK2; 10 uM, Average): 107.92%
- % Enzyme Activity (relative to DMSO controls), Data 1 (NEK2; 10 uM, replicate Data 1): 110.57%
- % Enzyme Activity (relative to DMSO controls), Data 2 (NEK2; 10 uM, replicate Data 2): 105.26%

Structure (SMILES): CC(=O)OCC1=C(C(=O)O)N2C(=O)[C@@H](NC(=O)Cc3cccs3)[C@H]2SC1 [Cephalothin]
- % Enzyme Activity (relative to DMSO controls), Average (NEK2; [1]): 98.03%
- % Enzyme Activity (relative to DMSO controls), Data 1 (NEK2; compound at 1 uM, replicate 1): 94.64%
- % Enzyme Activity (relative to DMSO controls), Data 2 (NEK2; compound at 1 uM, replicate 2): 101.41%
- % Enzyme Activity (relative to DMSO controls), Average (NEK2; [2]): 78.52%
- % Enzyme Activity (relative to DMSO controls), Data 1 (NEK2; compound at 10 uM, replicate 1): 86.91%
- % Enzyme Activity (relative to DMSO controls), Data 2 (NEK2; compound at 10 uM, replicate 2): 70.13%

Structure (SMILES): OC[C@@H](O)[C@@H](O)[C@H](O)[C@H](O)CO [Mannitol]
- % Enzyme Activity (relative to DMSO controls), Average (NEK2; [1]): 113.06%
- % Enzyme Activity (relative to DMSO controls), Data 1 (NEK2; compound at 1 uM, replicate 1): 110.81%
- % Enzyme Activity (relative to DMSO controls), Data 2 (NEK2; compound at 1 uM, replicate 2): 115.31%
- % Enzyme Activity (relative to DMSO controls), Average (NEK2; [2]): 102.41%
- % Enzyme Activity (relative to DMSO controls), Data 1 (NEK2; compound at 10 uM, replicate 1): 100.39%
- % Enzyme Activity (relative to DMSO controls), Data 2 (NEK2; compound at 10 uM, replicate 2): 104.43%

Structure (SMILES): Cc1nc(=O)c2cc(CN(C)c3ccc(C(=O)N[C@@H](CCC(=O)O)C(=O)O)s3)ccc2[nH]1 [Raltitrexed]
- % Enzyme Activity (relative to DMSO controls), Average (NEK2; 1 uM, Average): 103.04%
- % Enzyme Activity (relative to DMSO controls), Data 1 (NEK2; 1 uM, replicate Data 1): 108.18%
- % Enzyme Activity (relative to DMSO controls), Data 2 (NEK2; 1 uM, replicate Data 2): 97.89%
- % Enzyme Activity (relative to DMSO controls), Average (NEK2; 10 uM, Average): 95.93%
- % Enzyme Activity (relative to DMSO controls), Data 1 (NEK2; 10 uM, replicate Data 1): 101.42%
- % Enzyme Activity (relative to DMSO controls), Data 2 (NEK2; 10 uM, replicate Data 2): 90.43%
- % Enzyme Activity (relative to DMSO controls), Average (VEGFR2; 1 uM): 107.68%
- % Enzyme Activity (relative to DMSO controls), Data 1 (VEGFR2; 1 uM): 107.41%
- % Enzyme Activity (relative to DMSO controls), Data 2 (VEGFR2; 1 uM): 107.94%
- % Enzyme Activity (relative to DMSO controls), Average (VEGFR2; 10 uM): 105.59%
- % Enzyme Activity (relative to DMSO controls), Data 1 (VEGFR2; 10 uM): 105%
- % Enzyme Activity (relative to DMSO controls), Data 2 (VEGFR2; 10 uM): 106.17%

Structure (SMILES): CCCc1nn(C)c2c(=O)[nH]c(-c3cc(S(=O)(=O)N4CCN(C)CC4)ccc3OCC)nc12 [Sildenafil]
- % Enzyme Activity (relative to DMSO controls), Data 1 (NEK2; 1 uM, replicate Data 1): 95.77%
- % Enzyme Activity (relative to DMSO controls), Data 1 (NEK2; 10 uM, replicate Data 1): 85.23%
- % Enzyme Activity (relative to DMSO controls), Data 1 (VEGFR2; 1 uM): 112.59%
- % Enzyme Activity (relative to DMSO controls), Data 1 (VEGFR2; 10 uM): 111.96%
- % Enzyme Activity (relative to DMSO controls), Data 1 (CK1d; 1 uM): 107.72%

Structure (SMILES): NC[C@H]1CC[C@H](C(=O)O)CC1 [Tranexamic acid]
- remaining activity at 1 µM (NEK2; 1 uM, Average, read-out: % Enzyme Activity (relative to DMSO controls), Average): 72.5%
- remaining activity at 1 µM (NEK2; 1 uM, replicate Data 1, read-out: % Enzyme Activity (relative to DMSO controls), Data 1): 60.7%
- remaining activity at 1 µM (NEK2; 1 uM, replicate Data 2, read-out: % Enzyme Activity (relative to DMSO controls), Data 2): 84.2%
- remaining activity at 10 µM (NEK2; 10 uM, Average, read-out: % Enzyme Activity (relative to DMSO controls), Average): 85.3%
- remaining activity at 10 µM (NEK2; 10 uM, replicate Data 1, read-out: % Enzyme Activity (relative to DMSO controls), Data 1): 72.1%
- remaining activity at 10 µM (NEK2; 10 uM, replicate Data 2, read-out: % Enzyme Activity (relative to DMSO controls), Data 2): 98.5%

Structure (SMILES): c1coc(CNc2ncnc3[nH]cnc23)c1 [Kinetin]
- % Enzyme Activity (relative to DMSO controls), Average (NEK2; [1]): 107.09%
- % Enzyme Activity (relative to DMSO controls), Data 1 (NEK2; compound at 1 uM, replicate 1): 107.23%
- % Enzyme Activity (relative to DMSO controls), Data 2 (NEK2; compound at 1 uM, replicate 2): 106.95%
- % Enzyme Activity (relative to DMSO controls), Average (NEK2; [2]): 94.02%
- % Enzyme Activity (relative to DMSO controls), Data 1 (NEK2; compound at 10 uM, replicate 1): 94.51%
- % Enzyme Activity (relative to DMSO controls), Data 2 (NEK2; compound at 10 uM, replicate 2): 93.52%

Structure (SMILES): Cc1nnc(C(C)C)n1C1C[C@H]2CC[C@@H](C1)N2CC[C@H](NC(=O)C1CCC(F)(F)CC1)c1ccccc1 (stereo in doubt) [Maraviroc]
- % Enzyme Activity (relative to DMSO controls), Average (NEK2; 1 uM, Average): 95.71%
- % Enzyme Activity (relative to DMSO controls), Data 1 (NEK2; 1 uM, replicate Data 1): 89.78%
- % Enzyme Activity (relative to DMSO controls), Data 2 (NEK2; 1 uM, replicate Data 2): 101.63%
- % Enzyme Activity (relative to DMSO controls), Average (NEK2; 10 uM, Average): 100.82%
- % Enzyme Activity (relative to DMSO controls), Data 1 (NEK2; 10 uM, replicate Data 1): 99.97%
- % Enzyme Activity (relative to DMSO controls), Data 2 (NEK2; 10 uM, replicate Data 2): 101.67%

Structure (SMILES): Nc1nc2c(ncn2COCCO)c(=O)[nH]1 [Acyclovir]
- % Enzyme Activity (relative to DMSO controls), Average (NEK2; 1 uM, Average): 93.64%
- % Enzyme Activity (relative to DMSO controls), Data 1 (NEK2; 1 uM, replicate Data 1): 83.95%
- % Enzyme Activity (relative to DMSO controls), Data 2 (NEK2; 1 uM, replicate Data 2): 103.33%
- % Enzyme Activity (relative to DMSO controls), Average (NEK2; 10 uM, Average): 100.63%
- % Enzyme Activity (relative to DMSO controls), Data 1 (NEK2; 10 uM, replicate Data 1): 101.40%
- % Enzyme Activity (relative to DMSO controls), Data 2 (NEK2; 10 uM, replicate Data 2): 99.86%

Structure (SMILES): Cc1ccc(C(=O)c2ccc(CC(=O)O)n2C)cc1 [Tolmetin]
- % Enzyme Activity (relative to DMSO controls), Average (NEK2; [1]): 115.23%
- % Enzyme Activity (relative to DMSO controls), Data 1 (NEK2; compound at 1 uM, replicate 1): 120.50%
- % Enzyme Activity (relative to DMSO controls), Data 2 (NEK2; compound at 1 uM, replicate 2): 109.96%
- % Enzyme Activity (relative to DMSO controls), Average (NEK2; [2]): 107.09%
- % Enzyme Activity (relative to DMSO controls), Data 1 (NEK2; compound at 10 uM, replicate 1): 112.71%
- % Enzyme Activity (relative to DMSO controls), Data 2 (NEK2; compound at 10 uM, replicate 2): 101.47%

Structure (SMILES): Nc1nc2c(ncn2COC(CO)CO)c(=O)[nH]1 [Ganciclovir]
- % Enzyme Activity (relative to DMSO controls), Average (NEK2; [1]): 111.12%
- % Enzyme Activity (relative to DMSO controls), Data 1 (NEK2; compound at 1 uM, replicate 1): 112.02%
- % Enzyme Activity (relative to DMSO controls), Data 2 (NEK2; compound at 1 uM, replicate 2): 110.21%
- % Enzyme Activity (relative to DMSO controls), Average (NEK2; [2]): 89.44%
- % Enzyme Activity (relative to DMSO controls), Data 1 (NEK2; compound at 10 uM, replicate 1): 97.24%
- % Enzyme Activity (relative to DMSO controls), Data 2 (NEK2; compound at 10 uM, replicate 2): 81.63%

Structure (SMILES): CC(=O)CCCCn1c(=O)c2c(ncn2C)n(C)c1=O [Pentoxifylline]
- % Enzyme Activity (relative to DMSO controls), Average (NEK2; 1 uM, Average): 90.71%
- % Enzyme Activity (relative to DMSO controls), Data 1 (NEK2; 1 uM, replicate Data 1): 91.06%
- % Enzyme Activity (relative to DMSO controls), Data 2 (NEK2; 1 uM, replicate Data 2): 90.35%
- % Enzyme Activity (relative to DMSO controls), Average (NEK2; 10 uM, Average): 88.11%
- % Enzyme Activity (relative to DMSO controls), Data 1 (NEK2; 10 uM, replicate Data 1): 86.43%
- % Enzyme Activity (relative to DMSO controls), Data 2 (NEK2; 10 uM, replicate Data 2): 89.78%
